The results in this text go back to patent publication US6677357B2, “Rapamycin 29-enols” (Wyeth, priority 2001, dated 2004).

Common to all, as to format: cell-based
One assay has as its system SKBR3 (breast). Briefly: Antineoplastic activity, tumor cell growth inhibition (sulforhodamine B), SKBR3. The settings on record: 48 hours; for Antineoplastic Activity (IC50): SKBR3 cells; for IC50: Homo sapiens, SK-BR-3, SKBR3 cells. The source says:
(§1) Antineoplastic activity for the compounds of this invention was confirmed by evaluating the antineoplastic activity of representative compounds of this invention (Examples 1-5) against six tumor cell lines in vitro. Briefly, tumor cells from six cell lines were placed in wells of a 96 well microtiter plate. The following tumor cell lines were used: 3T3 (ovarian), 3T3/H2N (ovarian—resistant to cis-platin), A431 (vulva epidermoid origin), SW620 (colon), SKBR3 (breast), and MDA-435 (breast). The tumors cells were grown in the presence of serial dilutions of the compound to be evaluated for 48 hours, and cell growth determined using a calorimetric procedure (sulforhrodamine B). The inhibition of growth was calculated compared to the number of cells at the time of test compound addition.

Assay [1] deals with 3T3/H2N (ovarian—resistant to cis-platin). Put plainly: Antineoplastic activity, tumor cell growth inhibition (sulforhodamine B), 3T3/H2N. The settings on record: 3T3/H2N cells, 48 hours.
Excerpt: as §1

Another assay deals with 3T3 (ovarian). Briefly: Antineoplastic activity, tumor cell growth inhibition (sulforhodamine B), 3T3. The settings on record: 48 hours; for Antineoplastic Activity (IC50): 3T3 cells; for IC50: Mus musculus, NIH3T3, 3T3 cells.
Excerpt: as §1

Assay [2] has as its system A431 (vulva epidermoid origin). Put plainly: Antineoplastic activity, tumor cell growth inhibition (sulforhodamine B), A431. The settings on record: 48 hours; for Antineoplastic Activity (IC50): A431 cells; for IC50: Homo sapiens, A-431, A431 cells.
Excerpt: as §1

In the next assay the test system is MDA-435 (breast). Put plainly: Antineoplastic activity, tumor cell growth inhibition (sulforhodamine B), MDA-435. To be noted: MDA435 cells, 48 hours.
Excerpt: as §1

A further assay relates to SW620 (colon). Put plainly: Antineoplastic activity, tumor cell growth inhibition (sulforhodamine B), SW620. To be noted: 48 hours; for Antineoplastic Activity (IC50): SW620 cells; for IC50: Homo sapiens, SW-620, SW620 cells.
Excerpt: as §1

Another assay deals with SH-SY5Y cells. Put plainly: Neurite outgrowth (neuroregeneration) test procedure in SH-SY5Y cells. To be noted: SH-SY5Y cells pretreated with aphidicolin 5 days, mean ± SEM. The source says:
The neuroregeneration activity for the compounds of this invention was confirmed in a standard pharmacological test procedure by evaluating rapamycin dialdehyde (Example 1) and rapamycin 29-enol (Example 2), as representative compounds of this invention, against SH-SY5Y cells in vitro [Gold et al., Exp Neurol 147:269-278, 1997]. Briefly, SH-SY5Y cells were placed in 6-well plate treated with aphidicolin for 5 days followed by the test compounds using 6-well plates. For controls, wells were untreated, or treated with nerve growth factor (NGF) alone. Test wells were treated with NGF plus Example 1 and Example 2, or rapamycin. Cells were photographed at 168 hours. Analysis of neuritic lengths was performed on photographic prints using a Houston Instrument HI-PAD digitizing tablet connected to an IBM XT computer with appropriate software (Bioquant IV, R&M Biometrics, Nashville, Tenn.). Mean values for axonal areas were compared using by ANOVA (STATVIEW, Abacus Concepts, Inc., Berkeley, Calif.). The following table summarizes the results that were obtained.

≈ marks a conversion by molar mass, not a printed value.

On to “42-O-(2-Hydroxy)ethyl rapamycin 29-enol [V]”, for which the “Antineoplastic Activity (IC50)” value in the assay with SKBR3 (breast) was 2.69 mg/L; in assay [1], 4.96 mg/L; in the assay on 3T3 (ovarian) it was above 5 mg/L; in assay [2], above 5 mg/L; in the assay with MDA-435 (breast) it was above 5 mg/L; in the assay on SW620 (colon) it was above 5 mg/L.

With “42-O-(2-Hydroxy)ethyl rapamycin dialdehyde [IV]”, the “Antineoplastic Activity (IC50)” value was determined as 0.36 mg/L in the assay on SKBR3 (breast); 0.72 mg/L in assay [1]; 1.5 mg/L with 3T3 (ovarian); 2.64 mg/L in assay [2]; 1.1 mg/L in the assay on MDA-435 (breast); 3.04 mg/L with SW620 (colon).

Regarding `CO[C@@H](C[C@@H]1CC[C@@H](C)[C@](O)(C(=O)C(=O)N2CCCC[C@H]2C(=O)O[C@@H](CC(=O)[C@H](C)/C=C(\C)[C@@H](O)[C@@H](OC)C(=O)[C@H](C)C[C@H](C)/C=C/C=O)[C@H](C)CC2CC[C@@H](O)[C@H](OC)C2)O1)/C(C)=C/C=O` (stereo partly shown) [Example I, Rapamycin Dialdehyde], the half-inhibitory concentration (IC50) – broadly, the midpoint of a concentration-inhibition curve – stood at 0.52 mg/L (≈ 0.55 µM) with SKBR3 (breast); 0.68 mg/L (≈ 0.719 µM) in assay [1]; 0.72 mg/L (≈ 0.761 µM) in the assay with 3T3 (ovarian); 0.91 mg/L (≈ 0.962 µM) in assay [2]; 1.23 mg/L (≈ 1.3 µM) in the assay on MDA-435 (breast); 1.41 mg/L (≈ 1.49 µM) in the assay with SW620 (colon). Besides, in the assay on SH-SY5Y cells (test compound + NGF), the “Mean Neurite Length after 168 h” value is listed as 229.8 ± 9.5 (n = 141) μm.

Turning to `CO[C@@H]1[C@H](O)C2(C)OOC1([C@H](C)C[C@H](C)/C=C/C=O)O2` (stereo partly drawn) [III, (2E,4S,6R)-6-[(5S,6R)-5-Hydroxy-6-methoxy-4-methyl-2,3,7-trioxabicyclo[2.2.1]hept-1-yl]-4-methylhept-2-enal], the IC50 with SKBR3 (breast) was 2.05 mg/L (≈ 7.16 µM); in assay [1], above 5 mg/L; with 3T3 (ovarian), 4.11 mg/L (≈ 14.4 µM); in assay [2], 3.01 mg/L (≈ 10.5 µM); in the assay with MDA-435 (breast) it was 4.13 mg/L (≈ 14.4 µM); in the assay on SW620 (colon), above 5 mg/L.

On to `CO[C@H]1C[C@@H]2CC[C@@H](C)[C@@](O)(O2)C(=O)C(=O)N2CCCC[C@H]2C(=O)O[C@H]([C@H](C)C[C@@H]2CC[C@@H](O)[C@H](OC)C2)CC(=O)[C@H](C)/C=C(\C)[C@@H](O)[C@@H](OC)C(=O)[C@H](C)C[C@H](C)/C=C/C=C/C=C/1C` [Rapamycin], for which the “Mean Neurite Length after 168 h” value in the assay with SH-SY5Y cells (test compound + NGF) was 261.4 ± 13.1 (n = 119) μm.

For “NGF: nerve growth factor (NGF), used alone as control and together with test compounds”, the “Mean Neurite Length after 168 h” value in the assay with SH-SY5Y cells (NGF alone) was 196.5 ± 7.7 (n = 112) μm.

For Rapamycin 29-enol [Example II], the “Antineoplastic Activity (IC50)” value (in the assay with SKBR3 (breast); in assay [1]; in the assay on 3T3 (ovarian); in assay [2]; in the assay with MDA-435 (breast); in the assay on SW620 (colon)) was above 5 mg/L throughout. Besides, the “Mean Neurite Length after 168 h” value in the assay with SH-SY5Y cells (test compound + NGF) is recorded as 239.7 ± 10.0 (n = 155) μm.
